Tests used:
[1] = Stability examination taxifolin: color change of aqueous solutions; format: physicochemical; conditions: stored open, protected from light, room temperature
Protocol: In order to investigate the stability of the flavonoid taxifolin and the influence of thiamine and β-CD, experiments were also carried out in this regard. Since taxifolin forms red-brown oligomers upon breakdown, the detection is quite straightforward to carry out. Method: Three aqueous solutions were prepared in beakers containing I) 100 mg taxifolin in 150 ml distilled water II) 100 mg of Taxifolin+13 mg of thiamine HCl in 150 ml distilled water and III) 100 mg taxifolin+13 mg of thiamine HCl+373 mg of β-CD in distilled water. Samples were stored open and protected from light at room temperature and the color of the solution was checked every 24 h.

[2] = Screening of water-soluble polymers / alkylammonium cations: recrystallization of supersaturated taxifolin/β-CD complex solution; format: physicochemical; conditions: taxifolin:choline/carnitine cations ratio 1:0.85, 96 h
Protocol: In order to examine which water-soluble polymers are particularly suitable for improving the stability and dissolution capacity of flavonoid-cyclodextrin complexes, a screening was carried out. For this purpose, first, a supersaturated taxifolin/β-CD complex solution was prepared by adding an excess of equimolar taxifolin/β-CD complex and subsequent heating to 35° C. and filtering off.

Row | SMILES | Time of color change ([1]; aqueous solution) [h] | Color of solution [1] | Recrystallization after 96 h [2] | Remark (change versus reference solution) [2]
1 | O=C1c2c(O)cc(O)cc2O[C@H](c2ccc(O)c(O)c2)[C@H]1O [Taxifolin reference, taxifolin] | 48 | Red-brown | – | –
2 | C[N+](C)(C)C[C@H](O)CC(=O)[O-].O=C(O)C(O)C(O)C(=O)O [L-Carnitine tartrate, L-carnitine tartrate] | – | – | Distinct | No change

— US20230233513A1, “TAXIFOLIN FORMULATION COMPRISING THIAMINE” (Evanium Healthcare GmbH, priority 2020, published 2023)
